From patent US11452737B2, “Compositions and methods for treating vascular malformation and related conditions” (priority 2015, dated 2022)
pIC50: −log10 of the molar value. Values after ≈ are worked out from the molar mass of the structure shown. Like-named read-outs stand apart in the source and are kept apart here.

Tests used:
[1] = tested on: HEK293T cells transiently transfected with empty, wildtype, R183Q, or Q209L constructs; test: MTT assay dose response curve for puromycin, 24 well plate, transiently transfected cells; type: cell-based; settings: Homo sapiens, HEK-293T, 72 h, puromycin 3 days, read-out: Half maximal inhibitory concentration (IC50), cell number
Procedure: FIG. 1 is a plot showing response of cells as a function of puromycin concentration. HEK293T cells were transiently transfected with empty, wildtype, R183Q, or Q209L constructs and then exposed to puromycin for 3 days before cell number was assessed by MTT assay in 24 well plate.
To determine whether mutations in GNAQ conferred increased sensitivity to puromycin, an MTT (3-(4,5-dimethylthiazol-2-yl)-2,5-diphenyltetrazolium bromide) assay dose response curve was done with HEK239 cells (including standard curve and normalization) after transient transfection. Puromycin exposure in HEK293 cells transiently transfected with R183Q or Q209L (no puromycin selection) over greater than a 100 fold dose range was then tested.
HEK 293 cells (5×10^5 cells/well) in 6 well-plates were transient transfected with 1 μg of construct (pcDNA3.1-GNAQ, pcDAN3.1-R183Q and pcDNA3.1-Q209L) per well. Twenty-four (24) hours later, the cells were digested, counted and aliquoted into 24 well plates (0.8×10^5 cells/well). After another 24 hours, the transfected cells were incubated with various concentrations of puromycin.
Three days later, the relative cell numbers were detected using MTT assay reagents (CellTiter 96® Aqueous One Solution Cell Proliferation Assay Reagents) as follows. After being thawed at room temperature, 40 μl the CellTiter 96® Aqueous One Solution Reagent was pipetted into each well of the 24-well assay plate containing the samples in 200 μl of culture medium. Then, the plates were incubated at 37° C. for 2 hours in a humidified, 5% CO2 atmosphere. The supernatants were transferred into 96-well plates. The absorbance at 490 nm of each sample was read by using a plate reader (SpectraMax M5). Optical density directly correlated with viable cell quantity.
A software program (GraphPad Prism) was used to generate Dose Response Curves. A non-linear regression was done to graph the Log [puromycin molar concentration] versus Maximal Inhibitory Response. The GraphPad program was used to calculate the IC50 of puromycin for each cell line (dose that gives a 50% maximal response) and the 95% confidence intervals. A 2-way ANOVA (Dose by Construct) was done to determine if there is a significant effect of construct upon puromycin effect with p-value of <0.05 used to determine significance.

[2] = tested on: untransformed HMECs; test: Puromycin dose response curve in untransformed HMECs; type: cell-based, human; settings: 1 ug/ml puromycin, after 48 hours
[3] = tested on: HEK293T cells transiently transfected with pcDNA3.1-E, pcDNA3.1-GNAQ, pcDNA3.1-R183Q, pcDNA3.1-Q209L; test: Puromycin dose response curve, CellTiter 96 cell proliferation assay, 96-well plates; type: cell-based; settings: Homo sapiens, HEK-293T, 72 h, 3 days, read-out: half maximal inhibitory concentration (IC50)
Procedure: FIG. 5 is a plot showing a dose response curve for puromycin. HEK 293T cells (5×10^5 cells/well in six-well plate) were transiently transfected with pcDNA3.1-E, pcDNA3.1-GNAQ, pcDNA3.1-R183Q, pcDNA3.1-Q209L. Twenty-four (24) hours later, the cells were digested, counted and aliquoted into 96-well plates. Twenty-four (24) hours later, the cells were incubated with a series of puromycin concentrations. Three days later, the relative cell numbers were detected using a cell proliferation assay.
A dose response curve (cell number in response to puromycin concentration) for HEK293T cells transiently transfected pcDNA3.1-E, pcDNA3.1-GNAQ, pcDNA3.1-R183Q and pcDNA3.1-Q209L and treated with puromycin is shown in FIG. 5. Cells expressing either the pcDNA3.1-R183Q or pcDNA3.1-Q209L plasmids were more sensitive to puromycin compared with cells transfected with the pcDNA3.1-E or pcDNA3.1-GNAQ plasmids.
HEK293T cells (5×10^5 cells/well) in 6 well-plates were transiently transfected with 1 μg (pcDNA3.1-E, pcDNA3.1-GNAQ, pcDAN3.1-R183Q and pcDNA3.1-Q209L) per well using FUGENE 6®. Twenty-four (24) hours later, the cells were digested, counted and aliquoted into 96-well plates (1×10^4 cells/well). After another 24 hours, the transfected cells were incubated with a 100-fold concentration series of puromycin. Three days later, the relative cell numbers were detected using CELLTITER 96® Aqueous One Solution Cell Proliferation Assay Reagents (Promega #G3582) as follows: After being thawed at room temperature, 10 μl of CELLTITER 96® Aqueous One Solution Reagent was pipet into each well of the 96-well assay plate containing the samples in 100 μl of culture medium. Then, the plates were incubated at 37° C. for 2 hours in a humidified, 5% CO2 atmosphere. The absorbance at 490 nm of each sample was read by using SpectraMAX M5. Readings were normalized to that in pcDNA3.1-GNAQ cells receiving vehicle. Results were analyzed in GraphPad. Experiment was done in quadruplicate samples.

[4] = tested on: HEK293T cells with pcDNA3.1-E, -GNAQ, -R183Q or -Q209L plasmids; test: RT-PCR gene expression with or without puromycin treatment; type: cell-based, human
Procedure: A panel of genes, important to the regulation of the pathways downstream of GNAQ, were evaluated by RT-PCR in mRNA samples gathered from cells with the pcDNA3.1-E, pcDNA3.1-GNAQ, pcDNA3.1-R183Q or pcDNA3.1-Q209L plasmids with or without puromycin treatment of 0.04 ug/ul (FIGS. 6A-6F, n=3 per group from 3 separate experiments).
HEK293T cells (5×10^5 cells/well) were transfected with 1 μg plasmid (pcDNA3.1-GNAQ, pcDAN3.1-R183Q or pcDNA3.1-Q209L) in 6-well plates. Twenty-four (24) hours later, cells were digested and re-plated into 6-well plates. Twenty-four (24) hours later, the plates were incubated in DMEM (10% FBS) with or without 0.04 μg/ml puromycin. Three days later, total RNA of treated HEK293T cells were isolated by using RNEASY® Mini Kit (QIAGEN) as follows. Media was aspirated, and the cells washed twice with PBS. 350 μl Buffer RLT with B-Mercaptoethanol was added to the each well. The lysate was pipetted into a microcentrifuge tube and pipetted to mix. 1 volume of 70% ethanol was added to the lysate. Lysate was transferred to an RNEASY® spin column placed in a 2 ml collection tube (supplied) and centrifuged. RNEASY® spin column was washed as per kit instructions. 50 μl RNase-free water was added directly to the center of the spin column membrane which was centrifuged for 1 min at 12,000 rpm to elute the RNA. Three separate experiments were performed to obtain triplicate mRNA and protein samples for analysis.
Reverse Transcription was carried out with the using the High Capacity cDNA Reverse Transcription Kits and based on Applied Biosystems' protocol. 2×RT master mix is prepared using the kit components before preparing the reaction plate and kit components allowed to thaw on ice. Referring to one reaction amount of components, the volume of components needed to prepare the required number of reactions was calculated. Then 10 μl of 2×RT master mixes was pipetted into each well of 500 μl PCR clean tubes. 10 μL of RNA sample (1 μg) was pipetted into each tube which is then mixed, centrifuged and then placed in a thermal cycler with the program of (10 min at 25° C., 120 min at 37° C., 5 min at 85° C., then 4° C.). After the thermal cycler, 1 μl RNase H was added into the tubes and incubated at 37° C. for 20 min. Finally, 600 μl Nuclease-free H2O was added into each tube.
The primers for Real-Time PCR were designed online with Primer-BLAST software tool. For each gene, at least three primers at different locations were designed based on the cDNA of the genes. The primer concentrations were normalized and were adjusted to 5 pmol/μ1. The real-time PCR reaction mixture of 20 μl included 10 μl SYBR Green Mix (2×), 2 μl primer pair mix, and 8 μl diluted cDNA solution. The Real-time PCR of loaded samples were run on CFX Connect™ real-time PCR system (Bio-rad) with extension steps of (50° C. 2 min 1 cycle, 95° C. 10 min 1 cycle, 95° C. 15 sec then 60° C. 1 min 40 cycles, 72° C. 10 min, 1 cycle) followed by a melting curve analysis (from 55° C. to 95° C. increments 0.05° C./Sec) to guarantee absence of nonspecific amplification. The primers with a unique peak in melting curve were chosen for next step. The primers were also only used for next experiments after they were confirmed by obtaining the same results from other primers for the same gene. With the final confirmed primers, the RNA levels in triplicate samples, obtained from three separate experiments, were measured.

[5] = tested on: HEK293T cells with GNAQ constructs; test: Western blot of protein levels after puromycin treatment; type: cell-based, human
Procedure: Treated cells were harvested with ice-cold radioimmunoprecipitation assay (RIPA) buffer (150 mM NaCl, 1.0% IGEPAL® CA-630, 0.5% sodium deoxycholate, 0.1% SDS, and 50 mM Tris, pH 8.0) (Sigma-Aldrich) plus phosphatase inhibitor cocktail (Cell signaling technology, #5870) and analyzed by western blot as follows: Quantitative protein samples were denatured in 4×LDS Sample buffer (Invitrogen) at 100° C. for 6 minutes. Samples were then subjected to SDS-PAGE by using Bio-Rad 4-15% gradient gels and transferred to PVDF membrane. The membranes were blocked with Li-cor ODYSSEY® Blocking buffer for 30 minutes at room temperature. Then the membranes were incubated with primary antibody (GaQ 1:125, Santa Cruz Biotechnology, sc-393; p-ERK 1:1000, Cell Signaling Technology, 4370; ERK 1:1000, Cell signaling Technology, 4696; HSP90 1:1000, Cell Signaling Technology, 4877) in a 1:1 solution of Li-cor ODYSSEY® blocking buffer and Tris-Buffered Saline and 0.1% Tween 20 (TBST) overnight at 4° C. The membranes were then washed three times for 10 min each in Tris-Buffered Saline and 0.1% Tween 20 (TBST) then probed with goat anti-mouse (IR-Dye 680RD) or goat anti Rabbit (IR-Dye-800CW) labeled secondary antibody in 1:1 Li-cor ODYSSEY® blocking buffer to TBST for 1 hour at room temperature. […] Bands were quantified using Image J software program.

[6] = all three constructs, puromycin alone, significant

Structure (SMILES): COc1ccc(C[C@H](N)C(=O)N[C@H]2[C@@H](O)[C@H](n3cnc4c(N(C)C)ncnc43)O[C@@H]2CO)cc1 [puromycin]
- pIC50 ([1]; Q209L construct): 6.72
- pIC50 ([1]; R183Q construct): 6.72
- pIC50 ([1]; empty construct): 6.54
- pIC50 ([1]; wildtype GNAQ construct): 6.54
- cells killed [2]: 100%
- IC50 ([3]; HEK293T with pcDNA3.1-E (empty)): 0.084 µg/mL (≈ 0.178 µM)
- IC50 ([3]; HEK293T with pcDNA3.1-GNAQ (wildtype)): 0.091 µg/mL (≈ 0.193 µM)
- IC50 ([3]; HEK293T with pcDNA3.1-Q209L): 0.051 µg/mL (≈ 0.108 µM)
- IC50 ([3]; HEK293T with pcDNA3.1-R183Q): 0.064 µg/mL (≈ 0.136 µM)
- ID3 mRNA levels ([4]; R183Q and Q209L mutant cells, puromycin, compared to wildtype puromycin treated and vehicle treated mutant cells): upregulated
- TRIO mRNA levels ([4]; all three constructs, puromycin alone, not significant): up-regulated
- PRKCQ mRNA levels [4, 6]: up-regulated
- TEAD3 mRNA levels [4, 6]: up-regulated
- PIK3C2B mRNA levels ([4]; all three constructs, puromycin alone, significant only in Q209L cells): up-regulated
- TSC22D3 mRNA levels ([4]; cells expressing R183Q or Q209L plasmids, puromycin 0.04 ug/ml): further decreased
- ID3 mRNA levels ([4]; wildtype cells, puromycin 0.04 ug/ml, compared to vehicle treated): up-regulated
- TSC22D3 mRNA expression ([4]; wildtype cells, puromycin 0.04 ug/ml, compared to vehicle treated wildtype): decreased
- ID3 protein levels ([5]; puromycin treatment, pcDNA3.1-GNAQ, pcDNA3.1-R183Q or pcDNA3.1-Q209L cells): further increased
- Gαq protein levels ([5]; puromycin versus vehicle treated cells): No significant differences
